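Assay format: 96-well plates, 48-hour exposure. TGI marks complete inhibition of growth.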
The molecules below were run on SR leukemia (assay: NCI anticancer screen, dose series, 48 h).
With `Cc1cn2c(=O)c3ccccc3nc2s1` the TGI was greater than 100 µM.
With `O=C(CC(c1ccccc1)N1CCCCC1)c1ccccc1` (stereo not given) the TGI was 6.15 µM.
For `O=C(c1ccccc1)c1c(-c2ccccc2)[nH]n(-c2ccc([N+](=O)[O-])cc2)c(=O)c1=O`, the TGI was greater than 100 µM.
`CCN(CC)CCn1nc(N)c2nc3cc(Cl)ccc3nc21` gave a TGI greater than 100 µM.
`Cc1ccc(S(=O)(=O)C2=Cc3ccc(C(F)(F)F)cc3C2(O)c2cccc(C(F)(F)F)c2)cc1` (stereo not given) gave a TGI of 8.14 µM.
Work on `Nc1nc(Cl)cc(NCCO)n1` yielded a TGI greater than 100 µM.
In the case of `COc1cccc(OC)c1/C=C1\OC(=O)c2cccc(OC)c21`, the TGI is reported as greater than 24.3 µM.

The molecules below were run on M19-MEL melanoma (assay: NCI anticancer screen, dose series, 48 h).
`Cc1cn2c(=O)c3ccccc3nc2s1` gave a TGI greater than 100 µM.

These molecules were tested on HS 578T breast (assay: NCI anticancer screen, dose series, 48 h).
`O=C(CC(c1ccccc1)N1CCCCC1)c1ccccc1` (stereo not given) was tested, and the TGI was 70.5 µM.
`O=C(c1ccccc1)c1c(-c2ccccc2)[nH]n(-c2ccc([N+](=O)[O-])cc2)c(=O)c1=O` gave a TGI greater than 100 µM.
In the case of `CCN(CC)CCn1nc(N)c2nc3cc(Cl)ccc3nc21`, the TGI is reported as greater than 100 µM.
`Cc1ccc(S(=O)(=O)C2=Cc3ccc(C(F)(F)F)cc3C2(O)c2cccc(C(F)(F)F)c2)cc1` (stereo not given) gave a TGI greater than 27.2 µM.
With `Nc1nc(Cl)cc(NCCO)n1` the TGI was greater than 100 µM.
Molecule `COc1cccc(OC)c1/C=C1\OC(=O)c2cccc(OC)c21` has a TGI of 26.7 µM.

Each molecule was assayed on RXF 393 renal (assay: NCI anticancer screen, dose series, 48 h).
`Cc1cn2c(=O)c3ccccc3nc2s1` was tested, and the TGI was greater than 100 µM.
`O=C(CC(c1ccccc1)N1CCCCC1)c1ccccc1` (stereo not given) showed a TGI of 33.6 µM.
With `O=C(c1ccccc1)c1c(-c2ccccc2)[nH]n(-c2ccc([N+](=O)[O-])cc2)c(=O)c1=O` the TGI was greater than 100 µM.
For `CCN(CC)CCn1nc(N)c2nc3cc(Cl)ccc3nc21`, the TGI was greater than 100 µM.
Work on `Cc1ccc(S(=O)(=O)C2=Cc3ccc(C(F)(F)F)cc3C2(O)c2cccc(C(F)(F)F)c2)cc1` (stereo not given) yielded a TGI of 6.26 µM.
For `Nc1nc(Cl)cc(NCCO)n1`, the TGI was greater than 100 µM.
`COc1cccc(OC)c1/C=C1\OC(=O)c2cccc(OC)c21` was tested, and the TGI was 65 µM.

Each molecule was assayed on SN12C renal (assay: NCI anticancer screen, dose series, 48 h).
`Cc1cn2c(=O)c3ccccc3nc2s1` gave a TGI greater than 100 µM.
In the case of `O=C(CC(c1ccccc1)N1CCCCC1)c1ccccc1` (stereo not given), the TGI is reported as 32.6 µM.
`O=C(c1ccccc1)c1c(-c2ccccc2)[nH]n(-c2ccc([N+](=O)[O-])cc2)c(=O)c1=O` was tested, and the TGI was greater than 100 µM.
In the case of `CCN(CC)CCn1nc(N)c2nc3cc(Cl)ccc3nc21`, the TGI is reported as greater than 100 µM.
`Cc1ccc(S(=O)(=O)C2=Cc3ccc(C(F)(F)F)cc3C2(O)c2cccc(C(F)(F)F)c2)cc1` (stereo not given) was tested, and the TGI was 4.47 µM.
`Nc1nc(Cl)cc(NCCO)n1` gave a TGI greater than 100 µM.
In the case of `COc1cccc(OC)c1/C=C1\OC(=O)c2cccc(OC)c21`, the TGI is reported as greater than 100 µM.

These molecules were tested on OVCAR-8 ovarian (assay: NCI anticancer screen, dose series, 48 h).
`Cc1cn2c(=O)c3ccccc3nc2s1` gave a TGI greater than 100 µM.
`O=C(CC(c1ccccc1)N1CCCCC1)c1ccccc1` (stereo not given) gave a TGI of 33.4 µM.
Molecule `O=C(c1ccccc1)c1c(-c2ccccc2)[nH]n(-c2ccc([N+](=O)[O-])cc2)c(=O)c1=O` has a TGI greater than 100 µM.
With `CCN(CC)CCn1nc(N)c2nc3cc(Cl)ccc3nc21` the TGI was greater than 100 µM.
In the case of `Cc1ccc(S(=O)(=O)C2=Cc3ccc(C(F)(F)F)cc3C2(O)c2cccc(C(F)(F)F)c2)cc1` (stereo not given), the TGI is reported as 4.44 µM.
In the case of `Nc1nc(Cl)cc(NCCO)n1`, the TGI is reported as greater than 100 µM.
`COc1cccc(OC)c1/C=C1\OC(=O)c2cccc(OC)c21` showed a TGI greater than 100 µM.

These molecules were tested on EKVX NSCLC (assay: NCI anticancer screen, dose series, 48 h).
`Cc1cn2c(=O)c3ccccc3nc2s1` showed a TGI greater than 100 µM.
Molecule `O=C(CC(c1ccccc1)N1CCCCC1)c1ccccc1` (stereo not given) has a TGI of 34.5 µM.
`O=C(c1ccccc1)c1c(-c2ccccc2)[nH]n(-c2ccc([N+](=O)[O-])cc2)c(=O)c1=O` was tested, and the TGI was greater than 100 µM.
`CCN(CC)CCn1nc(N)c2nc3cc(Cl)ccc3nc21` showed a TGI greater than 100 µM.
In the case of `Cc1ccc(S(=O)(=O)C2=Cc3ccc(C(F)(F)F)cc3C2(O)c2cccc(C(F)(F)F)c2)cc1` (stereo not given), the TGI is reported as 9.83 µM.
`Nc1nc(Cl)cc(NCCO)n1` was tested, and the TGI was greater than 100 µM.
With `COc1cccc(OC)c1/C=C1\OC(=O)c2cccc(OC)c21` the TGI was greater than 100 µM.

The molecules below were run on HCT-116 colon (assay: NCI anticancer screen, dose series, 48 h).
`Cc1cn2c(=O)c3ccccc3nc2s1` showed a TGI greater than 100 µM.
`O=C(CC(c1ccccc1)N1CCCCC1)c1ccccc1` (stereo not given) gave a TGI of 19.9 µM.
For `O=C(c1ccccc1)c1c(-c2ccccc2)[nH]n(-c2ccc([N+](=O)[O-])cc2)c(=O)c1=O`, the TGI was greater than 100 µM.
`CCN(CC)CCn1nc(N)c2nc3cc(Cl)ccc3nc21` showed a TGI greater than 100 µM.
Molecule `Cc1ccc(S(=O)(=O)C2=Cc3ccc(C(F)(F)F)cc3C2(O)c2cccc(C(F)(F)F)c2)cc1` (stereo not given) has a TGI of 3.03 µM.
Work on `Nc1nc(Cl)cc(NCCO)n1` yielded a TGI greater than 100 µM.
`COc1cccc(OC)c1/C=C1\OC(=O)c2cccc(OC)c21` showed a TGI greater than 100 µM.

The molecules below were run on LOX IMVI melanoma (assay: NCI anticancer screen, dose series, 48 h).
Molecule `Cc1cn2c(=O)c3ccccc3nc2s1` has a TGI greater than 100 µM.
For `O=C(CC(c1ccccc1)N1CCCCC1)c1ccccc1` (stereo not given), the TGI was 20.6 µM.
For `CCN(CC)CCn1nc(N)c2nc3cc(Cl)ccc3nc21`, the TGI was greater than 100 µM.
For `Cc1ccc(S(=O)(=O)C2=Cc3ccc(C(F)(F)F)cc3C2(O)c2cccc(C(F)(F)F)c2)cc1` (stereo not given), the TGI was 3.52 µM.
`Nc1nc(Cl)cc(NCCO)n1` gave a TGI greater than 100 µM.
For `COc1cccc(OC)c1/C=C1\OC(=O)c2cccc(OC)c21`, the TGI was greater than 100 µM.

What follows are molecules tested on CCRF-CEM leukemia (assay: NCI anticancer screen, dose series, 48 h).
Work on `Cc1cn2c(=O)c3ccccc3nc2s1` yielded a TGI greater than 100 µM.
`O=C(CC(c1ccccc1)N1CCCCC1)c1ccccc1` (stereo not given) showed a TGI of 4.69 µM.
Molecule `O=C(c1ccccc1)c1c(-c2ccccc2)[nH]n(-c2ccc([N+](=O)[O-])cc2)c(=O)c1=O` has a TGI greater than 100 µM.
For `Cc1ccc(S(=O)(=O)C2=Cc3ccc(C(F)(F)F)cc3C2(O)c2cccc(C(F)(F)F)c2)cc1` (stereo not given), the TGI was 8.17 µM.
`COc1cccc(OC)c1/C=C1\OC(=O)c2cccc(OC)c21` was tested, and the TGI was greater than 100 µM.

Each molecule was assayed on A549 NSCLC (assay: NCI anticancer screen, dose series, 48 h).
`Cc1cn2c(=O)c3ccccc3nc2s1` gave a TGI greater than 100 µM.
In the case of `O=C(CC(c1ccccc1)N1CCCCC1)c1ccccc1` (stereo not given), the TGI is reported as 41.3 µM.
`O=C(c1ccccc1)c1c(-c2ccccc2)[nH]n(-c2ccc([N+](=O)[O-])cc2)c(=O)c1=O` showed a TGI greater than 100 µM.
For `CCN(CC)CCn1nc(N)c2nc3cc(Cl)ccc3nc21`, the TGI was greater than 100 µM.
In the case of `Cc1ccc(S(=O)(=O)C2=Cc3ccc(C(F)(F)F)cc3C2(O)c2cccc(C(F)(F)F)c2)cc1` (stereo not given), the TGI is reported as 8.61 µM.
Work on `Nc1nc(Cl)cc(NCCO)n1` yielded a TGI greater than 100 µM.
Work on `COc1cccc(OC)c1/C=C1\OC(=O)c2cccc(OC)c21` yielded a TGI greater than 100 µM.

What follows are molecules tested on HT29 colon (assay: NCI anticancer screen, dose series, 48 h).
With `Cc1cn2c(=O)c3ccccc3nc2s1` the TGI was greater than 100 µM.
`O=C(CC(c1ccccc1)N1CCCCC1)c1ccccc1` (stereo not given) was tested, and the TGI was 29.5 µM.
In the case of `O=C(c1ccccc1)c1c(-c2ccccc2)[nH]n(-c2ccc([N+](=O)[O-])cc2)c(=O)c1=O`, the TGI is reported as greater than 100 µM.
For `CCN(CC)CCn1nc(N)c2nc3cc(Cl)ccc3nc21`, the TGI was greater than 100 µM.
Work on `Cc1ccc(S(=O)(=O)C2=Cc3ccc(C(F)(F)F)cc3C2(O)c2cccc(C(F)(F)F)c2)cc1` (stereo not given) yielded a TGI of 5.14 µM.
Work on `Nc1nc(Cl)cc(NCCO)n1` yielded a TGI greater than 100 µM.
`COc1cccc(OC)c1/C=C1\OC(=O)c2cccc(OC)c21` was tested, and the TGI was greater than 100 µM.

The molecules below were run on UACC-62 melanoma (assay: NCI anticancer screen, dose series, 48 h).
Molecule `Cc1cn2c(=O)c3ccccc3nc2s1` has a TGI greater than 100 µM.
Molecule `O=C(CC(c1ccccc1)N1CCCCC1)c1ccccc1` (stereo not given) has a TGI of 30.7 µM.
Molecule `O=C(c1ccccc1)c1c(-c2ccccc2)[nH]n(-c2ccc([N+](=O)[O-])cc2)c(=O)c1=O` has a TGI greater than 100 µM.
`CCN(CC)CCn1nc(N)c2nc3cc(Cl)ccc3nc21` was tested, and the TGI was greater than 100 µM.
`Cc1ccc(S(=O)(=O)C2=Cc3ccc(C(F)(F)F)cc3C2(O)c2cccc(C(F)(F)F)c2)cc1` (stereo not given) showed a TGI of 5.71 µM.
For `Nc1nc(Cl)cc(NCCO)n1`, the TGI was greater than 100 µM.
`COc1cccc(OC)c1/C=C1\OC(=O)c2cccc(OC)c21` showed a TGI greater than 31 µM.

These molecules were tested on NCI-H522 lung (assay: NCI anticancer screen, dose series, 48 h).
`Cc1cn2c(=O)c3ccccc3nc2s1` gave a TGI greater than 100 µM.
In the case of `O=C(CC(c1ccccc1)N1CCCCC1)c1ccccc1` (stereo not given), the TGI is reported as 28.6 µM.
`O=C(c1ccccc1)c1c(-c2ccccc2)[nH]n(-c2ccc([N+](=O)[O-])cc2)c(=O)c1=O` was tested, and the TGI was 73.7 µM.
In the case of `CCN(CC)CCn1nc(N)c2nc3cc(Cl)ccc3nc21`, the TGI is reported as greater than 100 µM.
`Cc1ccc(S(=O)(=O)C2=Cc3ccc(C(F)(F)F)cc3C2(O)c2cccc(C(F)(F)F)c2)cc1` (stereo not given) was tested, and the TGI was 3.84 µM.
In the case of `Nc1nc(Cl)cc(NCCO)n1`, the TGI is reported as greater than 100 µM.
Work on `COc1cccc(OC)c1/C=C1\OC(=O)c2cccc(OC)c21` yielded a TGI of 12.2 µM.

The molecules below were run on OVCAR-4 ovarian (assay: NCI anticancer screen, dose series, 48 h).
`Cc1cn2c(=O)c3ccccc3nc2s1` showed a TGI greater than 100 µM.
`O=C(CC(c1ccccc1)N1CCCCC1)c1ccccc1` (stereo not given) gave a TGI of 40.2 µM.
For `O=C(c1ccccc1)c1c(-c2ccccc2)[nH]n(-c2ccc([N+](=O)[O-])cc2)c(=O)c1=O`, the TGI was greater than 100 µM.
In the case of `CCN(CC)CCn1nc(N)c2nc3cc(Cl)ccc3nc21`, the TGI is reported as greater than 100 µM.
Molecule `Cc1ccc(S(=O)(=O)C2=Cc3ccc(C(F)(F)F)cc3C2(O)c2cccc(C(F)(F)F)c2)cc1` (stereo not given) has a TGI of 4.05 µM.
Work on `Nc1nc(Cl)cc(NCCO)n1` yielded a TGI greater than 100 µM.
With `COc1cccc(OC)c1/C=C1\OC(=O)c2cccc(OC)c21` the TGI was greater than 100 µM.

These molecules were tested on PC-3 prostate (assay: NCI anticancer screen, dose series, 48 h).
With `O=C(CC(c1ccccc1)N1CCCCC1)c1ccccc1` (stereo not given) the TGI was 29.4 µM.
`O=C(c1ccccc1)c1c(-c2ccccc2)[nH]n(-c2ccc([N+](=O)[O-])cc2)c(=O)c1=O` gave a TGI greater than 100 µM.
With `CCN(CC)CCn1nc(N)c2nc3cc(Cl)ccc3nc21` the TGI was greater than 100 µM.
With `Cc1ccc(S(=O)(=O)C2=Cc3ccc(C(F)(F)F)cc3C2(O)c2cccc(C(F)(F)F)c2)cc1` (stereo not given) the TGI was 8.03 µM.
In the case of `Nc1nc(Cl)cc(NCCO)n1`, the TGI is reported as greater than 100 µM.

Reference: PubChem BioAssay (NCI)
